Source: patent publication US20160106102A1, “KNOWN AND NEW HETEROCYCLIC COMPOUNDS AS PEST CONTROL AGENTS” (BAYER CROPSCIENCE AKTIENGESELLSCHAFT, priority 2013, published 2016)
Read-outs that look alike come from different tables or passages of the source.

Legend:
[1] = log P determination by LC-MS in the acidic range; assay type: physicochemical
Source text: The LC-MS determination in the acidic range is effected at pH 2.7 using 0.1% aqueous formic acid and acetonitrile (contains 0.1% formic acid) as eluents, linear gradient from 10% acetonitrile to 95% acetonitrile. Alternatively, the determination is effected in the acidic range at pH 2.3 using 0.1% aqueous phosphoric acid and acetonitrile as eluents; linear gradient from 10% acetonitrile to 95% acetonitrile.

[2] = system: Myzus persicae; assay: Myzus persicae - sachet test; assay type: in vivo; details: 100% = all animals killed; for pest or weed control at 30 ppm: Myzus persicae, read-out: efficacy (kill in %)
Description: Myzus persicae—Sachet Test Solvent: 2% by vol. of N-methylpyrrolidone • 2% by vol. of diacetone alcohol To produce an appropriate active ingredient formulation, the active ingredient is mixed with the specified amounts of solvent and the concentrate is diluted to the desired concentration with water. The active ingredient formulation is added to a specific nutrient medium in the desired concentration by pipetting. This plate is sealed and combined with a further plate populated with the green peach aphid (Myzus persicae). After the desired time, the kill in % is determined. 100% means that all the animals have been killed; 0% means that no animals have been killed.

[3] = application rate of 6 ppm in nutrient medium
[4] = application rate of 30 ppm in nutrient medium
[5] = pH 2.7, LC-MS in the acidic range, read-out: log P (acid)
[6] = pH 2.7, values given in the synthesis examples and NMR lists, read-out: HPLC-MS: log P
[7] = amines of the formula (II-1), acidic range pH 2.7 (0.1% formic acid/acetonitrile) or pH 2.3 (0.1% phosphoric acid/acetonitrile)

Row | SMILES | log P (acid) ([1]; LC-MS in the acidic range) | efficacy (kill in %) [2, 3] [%] | efficacy (kill in %) [2, 4] [%] | other results
1 | Cc1cc(NC(=O)c2cccnc2)nn1Cc1ccc(Cl)nc1 [Compound I-1-21] | 1.42 | 100 | 100 | –
2 | CCOC(=O)Cn1nc(NC(=O)c2cccnc2)cc1C [Compound I-1-24] | 0.89 | 100 | 100 | –
3 | O=C(Nc1cc(C2CC2)n(Cc2ccc(Cl)nc2)n1)c1cccnc1 [Compound I-1-29] | 1.77 | 100 | 100 | –
4 | CCc1cc(NC(=O)c2cccnc2)nn1Cc1ccccc1 [Compound I-1-35, N-(1-Benzyl-5-ethyl-1H-pyrazol-3-yl)nicotinamide] | – | – | – | chromatographic logP [1, 5]: 2.03; chromatographic logP [1, 6]: 2.03; pest or weed control at 30 ppm [2, 4]: 100%
5 | Cc1cc(NC(=O)c2cccnc2)nn1Cc1ncccc1Cl [Compound I-1-37] | 1.42 | 100 | 100 | –
6 | Cc1cc(NC(=O)c2cccnc2)nn1-c1ccc(C(F)(F)F)cn1 [Compound I-1-45] | 2.64 | 100 | 100 | –
7 | COc1cc(OC)nc(Cn2nc(NC(=O)c3cccnc3)cc2C)n1 [Compound I-1-53] | 1.59 | 100 | 100 | –
8 | O=C(Nc1cc(C2CC2)n(Cc2ccccc2)n1)c1cccnc1 [Compound I-1-56] | 2.1 | – | 100 | –
9 | Cc1nc2c(c(NC(=O)c3cncc(F)c3)nn2C)c(C)c1C [Compound I-1-57] | 1.6 | 100 | 100 | –
10 | CCc1cc(NC(=O)c2cccnc2)nn1Cc1ccc(Cl)nc1 [Compound I-1-58] | 1.67 | 80 | 100 | –
11 | Cc1cc(NC(=O)c2cccnc2)nn1Cc1ccc(F)cc1 [Compound I-1-62] | 1.88 | 100 | 100 | –
12 | Cc1cc(NC(=O)c2cncnc2)nn1Cc1ccccc1 [Compound I-1-66] | 1.76 | – | 100 | –
13 | O=C(Nc1ccn(Cc2c(F)cccc2F)n1)c1cccnc1 [Compound I-1-68] | 1.55 | – | 100 | –
14 | O=C(Nc1ccn(Cc2cccc(F)c2)n1)c1cccnc1 [Compound I-1-70] | 1.59 | – | 100 | –
15 | O=C(Nc1ccn(Cc2cccc(C(F)(F)F)c2)n1)c1cccnc1 [Compound I-1-71] | 2.07 | – | 100 | –
16 | Cc1cccc(Cn2ccc(NC(=O)c3cccnc3)n2)c1 [Compound I-1-72] | 1.83 | 100 | 100 | –
17 | O=C(Nc1ccn(Cc2cccc(OC(F)(F)F)c2)n1)c1cccnc1 [Compound I-1-73] | 2.20 | – | 100 | –
18 | COc1cccc(Cn2ccc(NC(=O)c3cccnc3)n2)c1 [Compound I-1-74] | 1.57 | 100 | 100 | –
19 | CC(C)(C)c1ccc(Cn2ccc(NC(=O)c3cccnc3)n2)cc1 [Compound I-1-75] | 2.68 | – | 100 | –
20 | O=C(Nc1ccn(Cc2ccc(F)cc2F)n1)c1cccnc1 [Compound I-1-76] | 1.68 | 100 | 100 | –
21 | COC(=O)c1cccc(Cn2ccc(NC(=O)c3cccnc3)n2)c1 [Compound I-1-77] | 1.57 | 100 | 100 | –

Row | SMILES | log P (acid) ([1]; LC-MS in the acidic range) | efficacy (kill in %) [2, 3] [%] | efficacy (kill in %) [2, 4] [%] | other results
22 | COc1ccc(Cn2ccc(NC(=O)c3cccnc3)n2)cc1 [Compound I-1-78] | 1.55 | – | 100 | –
23 | Cc1cc(NC(=O)c2ccnnc2)nn1Cc1ccccc1 [Compound I-1-79, N-(1-Benzyl-5-methyl-1H-pyrazol-3-yl)pyridazine-4-carboxamide] | – | – | – | chromatographic logP [1, 5]: 1.67; chromatographic logP [1, 6]: 1.67; pest or weed control at 30 ppm [2, 4]: 100%
24 | Cc1ccc(C(=O)Nc2cc(C)n(Cc3ccccc3)n2)cn1 [Compound I-1-80] | 1.71 | 80 | 100 | –
25 | Cc1ccc(C)c(Cn2ccc(NC(=O)c3cccnc3)n2)c1 [Compound I-1-81] | 2.11 | – | 100 | –
26 | Cc1cc(NC(=O)c2cncc(Br)c2)nn1Cc1ccc(F)cc1 [Compound I-1-83] | 2.67 | – | 100 | –
27 | O=C(Nc1ccn(Cc2ccccc2)n1)c1cccnc1 [Compound I-1-84] | 1.52 | 100 | 100 | –
28 | CC(C)(C)c1ccc(Cn2ccc(NC(=O)c3ccc(Cl)nc3)n2)cc1 [Compound I-1-86] | 3.54 | – | 100 | –
29 | O=C(Nc1ccn(Cc2cccc(C(F)(F)F)c2)n1)c1ccc(Cl)nc1 [Compound I-1-87] | 2.82 | – | 100 | –
30 | O=C(Nc1ccn(Cc2ccccc2F)n1)c1cccnc1 [Compound I-1-88] | 1.58 | 100 | 100 | –
31 | N#Cc1ccccc1Cn1ccc(NC(=O)c2cccnc2)n1 [Compound I-1-89] | 1.37 | 100 | 100 | –
32 | O=C(Nc1ccn(Cc2cc(F)ccc2F)n1)c1cccnc1 [Compound I-1-90] | 1.65 | 100 | 100 | –
33 | O=C(Nc1ccn(Cc2ccccc2C(F)(F)F)n1)c1cccnc1 [Compound I-1-91] | 2.09 | – | 100 | –
34 | CCOC(=O)c1ccc(Cn2ccc(NC(=O)c3cccnc3)n2)cc1 [Compound I-1-92] | 1.85 | – | 100 | –
35 | Cc1cc(NC(=O)c2ccc(Cl)nc2)nn1Cc1ccccc1F [Compound I-1-93] | 2.59 | – | 100 | –
36 | Cc1cc(NC(=O)c2ccc(Cl)nc2)nn1Cc1ccc(F)cc1 [Compound I-1-95] | 2.57 | – | 100 | –
37 | Cc1cc(NC(=O)c2cncc(Br)c2)nn1Cc1ccccc1 [Compound I-1-99] | 2.58 | – | 100 | –
38 | Cc1cc(NC(=O)c2cnc(Cl)c(Cl)c2)nn1Cc1ccccc1 [Compound I-1-100] | 3.18 | – | 100 | –
39 | COc1ccc(C(=O)Nc2cc(C)n(Cc3ccccc3)n2)cn1 [Compound I-1-104] | 2.43 | 80 | 80 | –
40 | Cc1ccc(C(=O)Nc2cc(C)n(Cc3cccc(F)c3)n2)cn1 [Compound I-1-108] | 1.79 | – | 100 | –
41 | Cn1nc(NC(=O)c2cccnc2)cc1OC(F)F [Compound I-1-111] | 0.89 | 100 | 100 | –
42 | COc1nn(Cn2nc(N)cc2C)c(=O)n1C1CC1 [II-1-47] | – | – | – | log P (acid) [1, 7]: 0.72

Row | SMILES | log P (acid) ([1]; LC-MS in the acidic range) | efficacy (kill in %) [2, 3] [%] | efficacy (kill in %) [2, 4] [%] | other results
43 | Cc1cc(N)nn1Cn1c(=O)n(C)c(=O)n1C [II-1-48] | – | – | – | log P (acid) [1, 7]: 0.03
44 | Cc1cc(N)nn1Cn1nc(C)n(C2CC2)c1=O [II-1-49] | – | – | – | log P (acid) [1, 7]: 0.43
45 | Cc1cc(N)nn1Cn1nc(C2CC2)n(C2CC2)c1=O [II-1-50] | – | – | – | log P (acid) [1, 7]: 0.98
46 | Cc1cc(N)nn1CSc1ncccn1 [II-1-51] | – | – | – | log P (acid) [1, 7]: 0.49
47 | CC(C)=NOCn1nc(N)cc1C [II-1-52] | – | – | – | log P (acid) [1, 7]: 0.57
48 | Cc1cc(N)nn1CC1CC1(Cl)Cl (centres unmarked) [II-1-53] | – | – | – | log P (acid) [1, 7]: 1.12
49 | Cc1cc(N)nn1Cn1c(C)nn(C)c1=O [II-1-54] | – | – | – | log P (acid) [1, 7]: <−0.23
50 | Cc1cc(N)nn1CC=C(Cl)Cl [II-1-56] | – | – | – | log P (acid) [1, 7]: 1.13
51 | Cc1cc(N)nn1CN1CCCNC1=O [II-1-57] | – | – | – | log P (acid) [1, 7]: <−0.23
52 | Cc1cc(N)nn1CC(=O)Cc1ccccc1Cl [II-1-58] | – | – | – | log P (acid) [1, 7]: 1.39
53 | CC(C)=CCn1nc(N)cc1C [II-1-59] | – | – | – | log P (acid) [1, 7]: 0.73
54 | CSCn1nc(N)cc1C [II-1-60] | – | – | – | log P (acid) [1, 7]: 0.14
55 | CCSCn1nc(N)cc1C [II-1-61, 1-[(Ethylsulphanyl)methyl]-5-methyl-1H-pyrazole-3-amine] | – | – | – | chromatographic logP ([1]; pH 2.7, amines of the formula (II-1), acidic range pH 2.7 (0.1% formic acid/acetonitrile) or pH 2.3 (0.1% phosphoric acid/acetonitrile), read-out: log P (acid)): 0.63; chromatographic logP [1, 6]: 0.63
56 | N#Cc1cc(N)nn1Cc1ncccn1 [II-1-62] | – | – | – | log P (acid) [1, 7]: 0.20
57 | Cc1cc(N)nn1Cc1ncnn1C [II-1-63] | – | – | – | log P (acid) [1, 7]: <−0.23
58 | Cc1cc(N)nn1C(C)C#N (centres unmarked) [II-1-64] | – | – | – | log P (acid) [1, 7]: 0.02
59 | COC(=O)c1cc(C)n(Cc2ncccn2)n1 [Methyl 5-methyl-1-(pyrimidin-2-ylmethyl)-1H-pyrazole-3-carboxylate] | – | – | – | chromatographic logP [1, 6]: 0.98
60 | Cc1cc(N)nn1C(=O)OC(C)(C)C [tert-Butyl 3-amino-5-methyl-1H-pyrazole-1-carboxylate] | – | – | – | chromatographic logP [1, 6]: 1.23
61 | Cc1cc(NC(=O)OC(C)(C)C)nn1Cc1ncccn1 [tert-Butyl[5-methyl-1-(pyrimidin-2-ylmethyl)-1H-pyrazol-3-yl]carbamate] | – | – | – | chromatographic logP [1, 6]: 1.75
